Reference: patent US4705854A, “Phenothiazine compounds” (priority 1984, dated 1987)
Where two headings read alike, the source gives them in different places. Each block holds one compound with its values, some of them ahead of it.

What was measured:
[1] = target: T1, longitudinal muscle from the intact ileum of guinea-pigs (histamine) (Cavia porcellus, UniProt P31389); experiment: In vitro antihistamine activity: shift of histamine concentration-response curves (Schild plot), isolated guinea-pig ileum longitudinal muscle; assay type: cell-based; conditions: vs histamine, one hour incubation with test compound, 60 min
T1 construct: The longitudinal muscle was isolated from the intact ileum of guinea-pigs; from tissue; host or cells: longitudinal muscle of guinea-pig ileum (Hartley, male)
Experimental: A. In vitro antihistamine activity: The longitudinal muscle was isolated from the intact ileum of guinea-pigs (Hartley, male 250-400 g) and placed in an organ bath under 300 mg tension. After one hour of equilibration, cumulative concentration-response curves (Van Rossum, J. M., Arch. Int. Pharmacodyn. Ther. 143, 299-330, 1963) to histamine were obtained. Following washing, the tissues were incubated for one hour with the test compound and then a second histamine concentration-response curve was run. Shifts to the right of the agonist concentration-response curve produced by the antagonists were used to construct Schild plots (Arunlakshana, O. and Schild, H. O., Br. J. Pharmacol. 14, 48-58, 1959). Regression of Log (dr-l) on Log [B], where dr is an equiactive response in the presence and absence of antagonist and [B] is the molar concentration of antagonist, allowed an estimate of pA2, i.e. the negative log of the concentration of antagonist which shifts the control histamine concentration response curve 2X to the right.

[2] = background statement on promethazine; cited from earlier work
[3] = cited from earlier work

T1 sequence (P31389 whole entry): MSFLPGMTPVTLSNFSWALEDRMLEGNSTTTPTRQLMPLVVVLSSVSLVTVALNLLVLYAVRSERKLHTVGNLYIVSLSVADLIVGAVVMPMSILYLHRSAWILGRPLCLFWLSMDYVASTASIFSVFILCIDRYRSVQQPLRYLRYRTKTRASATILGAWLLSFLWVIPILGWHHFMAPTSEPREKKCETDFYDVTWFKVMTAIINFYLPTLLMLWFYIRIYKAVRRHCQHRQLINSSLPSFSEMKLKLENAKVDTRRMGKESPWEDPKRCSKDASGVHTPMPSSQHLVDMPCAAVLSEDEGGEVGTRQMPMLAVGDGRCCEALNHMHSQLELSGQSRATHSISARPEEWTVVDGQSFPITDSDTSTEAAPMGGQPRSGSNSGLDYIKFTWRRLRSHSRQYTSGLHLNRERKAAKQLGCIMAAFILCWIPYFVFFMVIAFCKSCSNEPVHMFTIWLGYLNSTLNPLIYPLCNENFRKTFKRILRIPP

pA2 [1]: 7.8
SMILES: CN(C)CCCN1c2ccccc2Sc2ccc(S(=O)(=O)O)cc21 [Example 2, 10-(3'-N,N-Dimethylaminopropyl)phenothiazine-2-sulphonic acid hemihydrate]

SMILES: CC(CN1c2ccccc2Sc2ccccc21)N(C)C (centres unmarked) [promethazine, 10-(2-dimethylaminopropyl)phenothiazine]
anticholinergic activity [2]: potent anticholinergic activity
sedation or drowsiness ([3]; in some patients, antihistamines now in use): cause sedation or drowsiness in some patients

SMILES: COc1ccc(CN(CCN(C)C)c2ccccn2)cc1 [pyrilamine]
sedation or drowsiness ([3]; in vivo): cause sedation or drowsiness in some patients

SMILES: Cc1ccc(/C(=C\CN2CCCC2)c2ccccn2)cc1 [triprolidine]
sedation or drowsiness ([3]; in vivo): cause sedation or drowsiness in some patients
